Molecules are shown by their SMILES.

From PMC5218480 (PLoS ONE, 2017) come the findings set out here.

This assay concerns MV-4-11 cells. The assay is described as follows: Gene expression microarray analysis (Affymetrix PrimeView) and GSEA. To be noted: ProbeSet 11746640_a_at; LIST D. Also noted: RFU PODN (11730768_x_at) / Fold change /veh PODN (11730768_x_at) / RFU LINC00158 (11744669_a_at) / Fold change /veh LINC00158 (11744669_a_at) / RFU DUSP10 (11751237_a_at) / Fold change /veh DUSP10 (11751237_a_at) / RFU ID3 (11757404_x_at) / Fold change /veh ID3 (11757404_x_at) / RFU PLEKHG5 (11737974_s_at) / Fold change /veh PLEKHG5 (11737974_s_at) / RFU LRRC4B (11730491_at) / Fold change /veh LRRC4B (11730491_at) / RFU GIMAP4 (11747438_a_at) / Fold change /veh GIMAP4 (11747438_a_at) / RFU KRT8 (11758183_x_at) / Fold change /veh KRT8 (11758183_x_at) / RFU CNN1 (11734310_a_at) / Fold change /veh CNN1 (11734310_a_at) / RFU VPS37D (11726825_at) / Fold change /veh VPS37D (11726825_at) / RFU C10orf10 (11716522_x_at) / Fold change /veh C10orf10 (11716522_x_at) / RFU KIR2DL2 /// KIR2DL4 /// KIR2DL5A /// KIR2DL5B /// KIR2DS1 /// KIR2DS2 /// KIR2DS3 /// KIR2DS4 /// KIR3DL3 /// KIR3DL3 /// KIR3DS1 (11738374_at) / Fold change /veh KIR2DL2 /// KIR2DL4 /// KIR2DL5A /// KIR2DL5B /// KIR2DS1 /// KIR2DS2 /// KIR2DS3 /// KIR2DS4 /// KIR3DL3 /// KIR3DL3 /// KIR3DS1 (11738374_at) / RFU C1QL1 (11718748_at) / Fold change /veh C1QL1 (11718748_at) / RFU TMPRSS4 (11747572_a_at) / Fold change /veh TMPRSS4 (11747572_a_at) / RFU HAMP (11756126_x_at) / Fold change /veh HAMP (11756126_x_at) / RFU RNFT2 (11725882_a_at) / Fold change /veh RNFT2 (11725882_a_at) / RFU NR4A2 (11747474_a_at) / Fold change /veh NR4A2 (11747474_a_at) / RFU ABCC12 (11746883_a_at) / Fold change /veh ABCC12 (11746883_a_at) / RFU TMEM136 (11760407_x_at) / Fold change /veh TMEM136 (11760407_x_at) / RFU CLDN22 /// WWC2 (11732394_at) / Fold change /veh CLDN22 /// WWC2 (11732394_at) / RFU HLA-DPB1 (11760878_x_at) / Fold change /veh HLA-DPB1 (11760878_x_at) / RFU SPINT1 (11716480_a_at) / Fold change /veh SPINT1 (11716480_a_at) / RFU GAP43 (11754022_s_at) / Fold change /veh GAP43 (11754022_s_at) / RFU A4GNT (11735810_at) / Fold change /veh A4GNT (11735810_at) / RFU PRB3 (11715151_x_at) / Fold change /veh PRB3 (11715151_x_at) / RFU TUBB4B (11761932_at) / Fold change /veh TUBB4B (11761932_at) / RFU CAPN14 (11732068_a_at) / Fold change /veh CAPN14 (11732068_a_at) / RFU TMCC2 (11721928_a_at) / Fold change /veh TMCC2 (11721928_a_at) / RFU IRGQ (11745062_a_at) / Fold change /veh IRGQ (11745062_a_at) / RFU FAM174B (11720279_a_at) / Fold change /veh FAM174B (11720279_a_at) / RFU TMPRSS4 (11748680_a_at) / Fold change /veh TMPRSS4 (11748680_a_at) / RFU FAM212B (11763350_a_at) / Fold change /veh FAM212B (11763350_a_at) / RFU PLEKHG5 (11743358_a_at) / Fold change /veh PLEKHG5 (11743358_a_at) / RFU ZSCAN30 (11745921_a_at) / Fold change /veh ZSCAN30 (11745921_a_at) / RFU CMKLR1 (11741424_a_at) / Fold change /veh CMKLR1 (11741424_a_at) / RFU LOC101060620 /// MAPK8IP1 (11723275_at) / Fold change /veh LOC101060620 /// MAPK8IP1 (11723275_at) / RFU SPTSSB (11747773_x_at) / Fold change /veh SPTSSB (11747773_x_at) / RFU PRSS12 (11739890_at) / Fold change /veh PRSS12 (11739890_at) / RFU BIN1 (11741810_x_at) / Fold change /veh BIN1 (11741810_x_at) / RFU WNT11 (11732464_a_at) / Fold change /veh WNT11 (11732464_a_at) / RFU C10orf10 (11716521_a_at) / Fold change /veh C10orf10 (11716521_a_at) / RFU C5orf56 (11738089_at) / Fold change /veh C5orf56 (11738089_at) / RFU CYB561 (11721691_x_at) / Fold change /veh CYB561 (11721691_x_at) / RFU ANKRD19P (11752326_a_at) / Fold change /veh ANKRD19P (11752326_a_at) / RFU OR2T12 /// OR2T33 /// OR2T8 (11738714_s_at) / Fold change /veh OR2T12 /// OR2T33 /// OR2T8 (11738714_s_at) / RFU VCAN (11748164_a_at) / Fold change /veh VCAN (11748164_a_at) / RFU JSRP1 (11732532_at) / Fold change /veh JSRP1 (11732532_at) / RFU KRTAP10-11 (11738290_x_at) / Fold change /veh KRTAP10-11 (11738290_x_at) / RFU MYO3A (11730013_a_at) / Fold change /veh MYO3A (11730013_a_at) / RFU EBF3 (11725865_a_at) / Fold change /veh EBF3 (11725865_a_at) / RFU CAMK2N1 (11719241_x_at) / Fold change /veh CAMK2N1 (11719241_x_at) / RFU C5orf56 (11738088_a_at) / Fold change /veh C5orf56 (11738088_a_at) / RFU OLFML3 (11715873_a_at) / Fold change /veh OLFML3 (11715873_a_at) / RFU LOC100653217 /// NTM (11731650_a_at) / Fold change /veh LOC100653217 /// NTM (11731650_a_at) / RFU MAPK11 (11762145_a_at) / Fold change /veh MAPK11 (11762145_a_at) / RFU FIZ1 (11724087_x_at) / Fold change /veh FIZ1 (11724087_x_at) / RFU OASL (11726364_x_at) / Fold change /veh OASL (11726364_x_at) / RFU SOX15 (11748057_x_at) / Fold change /veh SOX15 (11748057_x_at) / RFU CD79A (11719716_a_at) / Fold change /veh CD79A (11719716_a_at) / RFU HIST1H1D (11736915_at) / Fold change /veh HIST1H1D (11736915_at) / RFU CASKIN2 (11723855_a_at) / Fold change /veh CASKIN2 (11723855_a_at) / RFU LOC730098 (11760151_x_at) / Fold change /veh LOC730098 (11760151_x_at) / RFU OR4N2 (11742367_at) / Fold change /veh OR4N2 (11742367_at) / RFU PRRT2 (11749266_a_at) / Fold change /veh PRRT2 (11749266_a_at) / RFU SNX32 (11753110_a_at) / Fold change /veh SNX32 (11753110_a_at) / RFU CDHR5 (11726645_a_at) / Fold change /veh CDHR5 (11726645_a_at) / RFU RCAN1 (11760418_a_at) / Fold change /veh RCAN1 (11760418_a_at) / RFU FAM167A (11723789_a_at) / Fold change /veh FAM167A (11723789_a_at) / RFU FAM26E (11764081_at) / Fold change /veh FAM26E (11764081_at) / RFU ISYNA1 (11749810_s_at) / Fold change /veh ISYNA1 (11749810_s_at) / RFU ACY1 (11761880_at) / Fold change /veh ACY1 (11761880_at) / RFU 11764098_at / Fold change /veh 11764098_at / RFU SAMD14 (11745864_x_at) / Fold change /veh SAMD14 (11745864_x_at) / RFU NPB (11741838_a_at) / Fold change /veh NPB (11741838_a_at) / RFU TMPRSS6 (11731388_a_at) / Fold change /veh TMPRSS6 (11731388_a_at) / RFU KRTAP10-2 (11738614_at) / Fold change /veh KRTAP10-2 (11738614_at) / RFU ARHGAP8 /// PRR5-ARHGAP8 (11727945_x_at) / Fold change /veh ARHGAP8 /// PRR5-ARHGAP8 (11727945_x_at) / RFU KRTAP5-7 /// NADSYN1 (11734609_at) / Fold change /veh KRTAP5-7 /// NADSYN1 (11734609_at) / RFU RASL12 (11751679_a_at) / Fold change /veh RASL12 (11751679_a_at) / RFU CDKN2B (11736163_a_at) / Fold change /veh CDKN2B (11736163_a_at) / RFU PRF1 (11729649_at) / Fold change /veh PRF1 (11729649_at) / RFU, ZNF638 /// ZNF638-IT1 / Fold change vs veh, ZNF638 /// ZNF638-IT1 / RFU, PANK3 / Fold change vs veh, PANK3 / RFU, SH3YL1 / Fold change vs veh, SH3YL1 / RFU, ZEB2 / Fold change vs veh, ZEB2 / RFU, NRIP1 / Fold change vs veh, NRIP1 / RFU, PTTG1IP / Fold change vs veh, PTTG1IP / RFU, CAPN2 / Fold change vs veh, CAPN2 / RFU, MED14 / Fold change vs veh, MED14 / RFU, SNORA58 / Fold change vs veh, SNORA58 / RFU, C1orf63 / Fold change vs veh, C1orf63 / RFU, LRRFIP1 / Fold change vs veh, LRRFIP1 / RFU, NDUFAF7 / Fold change vs veh, NDUFAF7 / RFU, SLC12A2 / Fold change vs veh, SLC12A2 / RFU, IBTK / Fold change vs veh, IBTK / RFU, ESF1 / Fold change vs veh, ESF1 / Fold change vs veh, TMEM50B / RFU, TAOK1 / Fold change vs veh, TAOK1 / RFU, ACBD3 / Fold change vs veh, ACBD3 / RFU, TMA16 / Fold change vs veh, TMA16 / RFU, RWDD3 / Fold change vs veh, RWDD3 / RFU, BCAT1 / Fold change vs veh, BCAT1 / RFU, EDEM3 / Fold change vs veh, EDEM3 / RFU, TMEM33 / Fold change vs veh, TMEM33 / RFU, WDR75 / Fold change vs veh, WDR75 / RFU, AHCTF1 / Fold change vs veh, AHCTF1 / RFU, TFRC / Fold change vs veh, TFRC / RFU, ZDHHC17 / Fold change vs veh, ZDHHC17 / RFU, NOM1 / Fold change vs veh, NOM1 / RFU, ARL8B / Fold change vs veh, ARL8B / RFU, ZBTB11 / Fold change vs veh, ZBTB11 / RFU, TAMM41 / Fold change vs veh, TAMM41 / RFU, KIAA1704 /// LOC100996395 / Fold change vs veh, KIAA1704 /// LOC100996395 / RFU, ING1 / Fold change vs veh, ING1 / RFU, TRMT61B / Fold change vs veh, TRMT61B / RFU, FUBP3 / Fold change vs veh, FUBP3 / RFU, TP53 / Fold change vs veh, TP53 / RFU, TNKS2 / Fold change vs veh, TNKS2 / RFU, ZFP14 / Fold change vs veh, ZFP14 / RFU, ACTR2 / Fold change vs veh, ACTR2 / RFU, PPP3R1 / Fold change vs veh, PPP3R1 / RFU, PIK3R1 / Fold change vs veh, PIK3R1 / RFU, HNRNPA1 / Fold change vs veh, HNRNPA1 / RFU, RNF170 / Fold change vs veh, RNF170 / RFU, ZNF28 / Fold change vs veh, ZNF28 / RFU, RNGTT / Fold change vs veh, RNGTT / RFU, OGT / Fold change vs veh, OGT / RFU, BRD1 / Fold change vs veh, BRD1 / RFU, MARS / Fold change vs veh, MARS / RFU, ZNF655 / Fold change vs veh, ZNF655 / RFU, FAHD1 / Fold change vs veh, FAHD1 / RFU, BDP1 / Fold change vs veh, BDP1 / RFU, LRRCC1 / Fold change vs veh, LRRCC1 / RFU, ARID1A / Fold change vs veh, ARID1A / RFU, ZNF146 / Fold change vs veh, ZNF146 / RFU, ZNF330 / Fold change vs veh, ZNF330 / RFU, GPN3 / Fold change vs veh, GPN3 / RFU, C9orf123 / Fold change vs veh, C9orf123 / RFU, N4BP2L2 / Fold change vs veh, N4BP2L2 / RFU, ARFIP1 / Fold change vs veh, ARFIP1 / RFU, FAM179B / Fold change vs veh, FAM179B / RFU, BCL10 / Fold change vs veh, BCL10 / RFU, UHRF1BP1L / Fold change vs veh, UHRF1BP1L / RFU, BET1 / Fold change vs veh, BET1 / RFU, CNOT2 / Fold change vs veh, CNOT2 / RFU, ZNF268 / Fold change vs veh, ZNF268 / Fold change vs veh, ZNF507 / RFU, DGCR2 / Fold change vs veh, DGCR2 / RFU, WDSUB1 / Fold change vs veh, WDSUB1 / Fold change vs veh, HSP90B1 /// MIR3652 / RFU, ADSS / Fold change vs veh, ADSS / RFU, GK / Fold change vs veh, GK / RFU, ZNF148 / Fold change vs veh, ZNF148 / RFU, TAF9 / Fold change vs veh, TAF9 / RFU, SLC1A5 / Fold change vs veh, SLC1A5 / RFU, SLMO2 / Fold change vs veh, SLMO2 / RFU, ABCC4 / Fold change vs veh, ABCC4 / RFU, LOC101060439 /// RAP1B / Fold change vs veh, LOC101060439 /// RAP1B / RFU, RFX7 / Fold change vs veh, RFX7 / RFU, GTPBP10 / Fold change vs veh, GTPBP10 / RFU, CNEP1R1 / Fold change vs veh, CNEP1R1 / RFU, BIVM-ERCC5 /// ERCC5 / Fold change vs veh, BIVM-ERCC5 /// ERCC5 / RFU, ILF3 / Fold change vs veh, ILF3 / RFU 11762660_at / Fold change /veh 11762660_at / RFU VCAN (11757783_s_at) / Fold change /veh VCAN (11757783_s_at) / RFU DDX43 (11728927_at) / Fold change /veh DDX43 (11728927_at) / RFU KRT8 (11758188_x_at) / Fold change /veh KRT8 (11758188_x_at) / RFU NKD1 (11759106_at) / Fold change /veh NKD1 (11759106_at) / RFU SRD5A1 (11742802_a_at) / Fold change /veh SRD5A1 (11742802_a_at) / RFU TPSAB1 /// TPSB2 (11721975_s_at) / Fold change /veh TPSAB1 /// TPSB2 (11721975_s_at) / RFU GSTM3 (11746129_a_at) / Fold change /veh GSTM3 (11746129_a_at) / RFU IL23R (11737362_x_at) / Fold change /veh IL23R (11737362_x_at) / RFU TMEM51 (11727254_a_at) / Fold change /veh TMEM51 (11727254_a_at) / RFU PIWIL2 (11732686_x_at) / Fold change /veh PIWIL2 (11732686_x_at) / RFU ORM1 (11744905_x_at) / Fold change /veh ORM1 (11744905_x_at) / RFU CCDC152 (11743942_at) / Fold change /veh CCDC152 (11743942_at) / RFU ECM1 (11717891_a_at) / Fold change /veh ECM1 (11717891_a_at) / RFU IL23R (11748794_a_at) / Fold change /veh IL23R (11748794_a_at) / RFU TNFAIP8L3 (11732012_x_at) / Fold change /veh TNFAIP8L3 (11732012_x_at) / RFU MBOAT4 (11741988_at) / Fold change /veh MBOAT4 (11741988_at) / RFU 11764193_at / Fold change /veh 11764193_at / RFU TMEM53 (11763286_at) / Fold change /veh TMEM53 (11763286_at) / RFU MAGEB2 (11727129_at) / Fold change /veh MAGEB2 (11727129_at) / RFU TMEM200A (11744735_a_at) / Fold change /veh TMEM200A (11744735_a_at) / RFU CCDC152 (11751479_a_at) / Fold change /veh CCDC152 (11751479_a_at) / RFU FAM211A (11726209_a_at) / Fold change /veh FAM211A (11726209_a_at) / RFU RGS16 (11746705_a_at) / Fold change /veh RGS16 (11746705_a_at) / RFU VCAN (11755009_s_at) / Fold change /veh VCAN (11755009_s_at) / RFU RHOB (11743442_s_at) / Fold change /veh RHOB (11743442_s_at) / RFU RGS16 (11720943_a_at) / Fold change /veh RGS16 (11720943_a_at) / RFU RGS16 (11720944_at) / Fold change /veh RGS16 (11720944_at) / RFU, VPS4B / Fold change vs veh, VPS4B / RFU, CREB1 / Fold change vs veh, CREB1 / RFU, DNAJC13 / Fold change vs veh, DNAJC13 / RFU, GNAQ / Fold change vs veh, GNAQ / RFU, CDK5R1 / Fold change vs veh, CDK5R1 / RFU, ZRANB3 / Fold change vs veh, ZRANB3 / RFU, CUL4A / Fold change vs veh, CUL4A / RFU, CCNY / Fold change vs veh, CCNY / RFU, UFL1 / Fold change vs veh, UFL1 / RFU, COG3 / Fold change vs veh, COG3 / RFU, DIAPH2 / Fold change vs veh, DIAPH2 / RFU, SKA2 / Fold change vs veh, SKA2 / RFU, AFF3 / Fold change vs veh, AFF3 / RFU, LMF1 / Fold change vs veh, LMF1 / RFU, IPO11 / Fold change vs veh, IPO11 / RFU, DFFB / Fold change vs veh, DFFB / RFU, FOXP1 / Fold change vs veh, FOXP1 / RFU, CARD8 / Fold change vs veh, CARD8 / RFU, STRN3 / Fold change vs veh, STRN3 / RFU, ADK / Fold change vs veh, ADK / RFU, RASSF2 / Fold change vs veh, RASSF2 / RFU, WIPF1 / Fold change vs veh, WIPF1 / RFU, LARP1B / Fold change vs veh, LARP1B / RFU, RASA1 / Fold change vs veh, RASA1 / RFU, RB1 / Fold change vs veh, RB1 / RFU, PPFIA1 / Fold change vs veh, PPFIA1 / RFU, MAT2A / Fold change vs veh, MAT2A / RFU, CCT5 / Fold change vs veh, CCT5 / RFU, WDR92 / Fold change vs veh, WDR92 / RFU, CUX1 / Fold change vs veh, CUX1 / RFU, TTC7A / Fold change vs veh, TTC7A / RFU, TMEM135 / Fold change vs veh, TMEM135 / RFU, DEPTOR / Fold change vs veh, DEPTOR / RFU, CPM / Fold change vs veh, CPM / RFU, DNAJB6 / Fold change vs veh, DNAJB6 / RFU, CACNA2D3 / Fold change vs veh, CACNA2D3 / RFU, DTX4 / Fold change vs veh, DTX4 / RFU, TFCP2 / Fold change vs veh, TFCP2 / RFU, GMCL1 /// GMCL1P1 / Fold change vs veh, GMCL1 /// GMCL1P1 / RFU, AEBP2 / Fold change vs veh, AEBP2 / RFU, SNHG1 /// SNORD22 /// SNORD25 /// SNORD26 /// SNORD27 /// SNORD28 /// SNORD29 /// SNORD31 / Fold change vs veh, SNHG1 /// SNORD22 /// SNORD25 /// SNORD26 /// SNORD27 /// SNORD28 /// SNORD29 /// SNORD31 / Fold change (Aza/veh), C12orf56 (ProbeSet 11735607_a_at) / Fold change (ACY-1035/veh), C12orf56 (ProbeSet 11735607_a_at) / Fold change (Aza/veh), FGFR1OP (ProbeSet 11751329_s_at) / Fold change (ACY-1035/veh), FGFR1OP (ProbeSet 11751329_s_at) / Fold change (Aza/veh), VPS36 (ProbeSet 11739960_a_at) / Fold change (ACY-1035/veh), VPS36 (ProbeSet 11739960_a_at) / RFU SYPL1 (11715823_x_at) / Fold change /veh SYPL1 (11715823_x_at) / RFU IGFBP7 (11715501_s_at) / Fold change /veh IGFBP7 (11715501_s_at) / RFU REEP3 (11722064_at) / Fold change /veh REEP3 (11722064_at) / RFU IGLL1 (11728026_x_at) / Fold change /veh IGLL1 (11728026_x_at): dose or concentration left out as unconfirmed. The class given is cell-based, human.

On to `Nc1ccc(-c2cccs2)cc1NC(=O)c1ccc2c(c1)cc(C1CC1)n2CCN1CCOCC1` [ACY-1035], for which the “Fold change vs veh, RASSF2” value worked out at 0.86.
